# Target: T1, human B1R (Homo sapiens, UniProt P46663)
# T1 construct: expressed in transfected cells; host or cells: CHO K1 cells (Chinese Hamster Ovary), stably transfected
# T1 sequence (P46663 1-353): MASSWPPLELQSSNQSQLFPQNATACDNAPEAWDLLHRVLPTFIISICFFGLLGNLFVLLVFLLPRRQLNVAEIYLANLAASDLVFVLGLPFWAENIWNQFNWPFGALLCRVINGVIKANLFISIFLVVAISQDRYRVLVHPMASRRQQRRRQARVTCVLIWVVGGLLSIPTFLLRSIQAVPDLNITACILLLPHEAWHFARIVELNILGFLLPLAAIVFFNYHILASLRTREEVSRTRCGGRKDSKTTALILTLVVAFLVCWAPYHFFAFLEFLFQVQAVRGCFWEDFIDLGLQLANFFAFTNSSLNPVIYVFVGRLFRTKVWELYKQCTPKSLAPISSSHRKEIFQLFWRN
# Assay: Functional assay at bradykinin receptor 1 (B1R): Ca2+ fluorescence (Fluo-4) in FLIPR/Novostar, antagonist mode
# Assay type: cell-based
# Conditions: test substance 10 µM, CHO K1 cells stably transfected with human B1R gene (hB1R-Zellen), agonist Lys-Des-Arg9-Bradykinin at EC80, % inhibition relative to maximal achievable inhibition; for inhibition at 10 µM: read-out: % Inhibierung (human B1R) bei 10 µM
# In short: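 CHO K1 cells stably expressing human B1R were loaded with Fluo-4 and preincubated 6–20 min with test compound before Lys-Des-Arg9-bradykinin at its EC80. Peak fluorescence (ex 488/em 540 nm) gave % inhibition versus maximal inhibition; IC50 from several concentrations, n=2 or 3.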
Molecule,inhibition at 10 µM [%],% Inhibierung (human B1R) bei 10 µM [%]
"COc1cc(C)c(S(=O)(=O)Cc2c(C)nn(CC(=O)N3CCC(CN4CCN(C)CC4)C3)c2C)c(C)c1 (stereo not shown) [SC-92, 2-[4-[[(4-Methoxy-2,6-dimethyl-phenyl)sulfonyl]-methyl]-3,5-dimethyl-1H-pyrazol-1-yl]-1-[3-[(4-methyl-piperazin-1-yl)-methyl]-pyrrolidin-1-yl]-ethanon]",90,–
"COc1cc(C)c(S(=O)(=O)Cc2cn(CC(=O)N3CCC(CN4CCN(C)CC4)C3)nn2)c(C)c1 (stereo not shown) [SC-93, 2-[4-[[(4-Methoxy-2,6-dimethyl-phenyl)sulfonyl]-methyl]-1H-[1,2,3]triazol-1-yl]-1-[3-[(4-methyl-piperazin-1-yl)-methyl]-pyrrolidin-1-yl]-ethanon]",100,–
"N-[1-(4-Fluor-cyclohexyl)-3,3-dimethyl-piperidin-4-yl]-2-[3-[[(4-methoxy-2,6-dimethyl-phenyl)sulfonyl]-methyl]-[1,2,4]oxadiazol-5-yl]-acetamid [SC-48]",–,100
"N-[4-(Cyclopropylamino)-2,2-dimethyl-cyclohexyl]-2-[3-[[(2,3-dichlor-phenyl)sulfonyl]-methyl]-[1,2,4]oxadiazol-5-yl]-acetamid [CC-123]",–,99
